Here are results for four compounds from patent US20160135468A1, “A Composition for Enhanced Biocidal Activity and Water Purification Device on the Same” (INDIAN INSTITUTE OF TECHNOLOGY, priority 2013, published 2016).

SMILES strings stand for the structures. Bounds are passed on as bounds.

The conditions of data set [1]: 25° C.; cited from earlier work.
The test system of data set [2] is E. coli. Briefly: Bacterial killing efficiency at low silver ion concentration (Example 3). The class given is cell-based.
Source text: This example describes the method of measuring the bacterial killing efficiency of the composition in comparison to silver ion, when low concentration of silver ion is used. […] Synthetic challenge water contains all the ions as prescribed by US NSF for challenge water studies. Source of carbonate ion is chosen one amongst the following: sodium carbonate, potassium carbonate or ammonium carbonate or a combination thereof. Source of Ag^+ is chosen one amongst the following: silver nitrate, silver acetate, silver sulfate, silver fluoride or a combination thereof. After one hour of standing, 1 mL from the samples was plated along with agar on a sterile petridish using pour plate method.
Data set [3] deals with S. aureus (MTCC 96). Briefly: S. aureus killing efficiency (Example 6). The class given is cell-based.
Procedure: In an aspect, 100 mL of synthetic water (typically containing E-coli concentration of 1×10^5 CFU/mL, unless otherwise mentioned) was separately shaken with Ag^+ and Ag^+/CO3^2−. Synthetic challenge water contains all the ions as prescribed by US NSF for challenge water studies. Source of carbonate ion is chosen one amongst the following: sodium carbonate, potassium carbonate or ammonium carbonate or a combination thereof. Source of Ag^+ is chosen one amongst the following: silver nitrate, silver acetate, silver sulfate, silver fluoride or a combination thereof. 1 mL of the sample was plated along with nutrient agar on a sterile petridish using the pour plate method after 1 h. After 48 hours of incubation of plating at 37° C., the colonies were counted and recorded.
The test system of data set [4] is MS2 bacteriophage. Description: Kinetics of virus killing efficiency (Example 10). The class given is cell-based.
Procedure: Synthetic water having the TDS between 300-500 ppm and pH=7±0.2 was used in the study. […] 1 mL of the sample along with soft agar was plated on a sterile petridish using plaque assay method after 15 min, 30 min, 45 min and 60 min of contact time.
The test system of data set [5] is E. coli. Briefly: Bacterial killing efficiency in sea salt containing water (Example 2). The class given is cell-based. To be noted: Ag^+ 50 ppb (composition with CO3^2− 20 ppm), input 1×10^5 CFU/mL, 1 h standing.
Procedure: In an aspect, 100 mL of synthetic water (typically containing E. coli concentration of 1×10^5 CFU/mL, unless otherwise mentioned) with Ag^+ (50 ppb) and Ag^+ (50 ppb)/CO3^2− (20 ppm) was separately shaken with different concentrations of sea salt. […] Synthetic challenge water contains all the ions as prescribed by US NSF for challenge water studies. Typically, one hour of standing time, unless otherwise mentioned, is provided for the exposure of microorganisms to the biocidal composition. After one hour of standing, 1 mL from the samples was plated along with agar on a sterile petridish using the pour plate method.
Data set [6] relates to E-coli. Description: Sterility of stored treated water (Example 7). The class given is cell-based. To be noted: 24 h storage.
The subject of data set [7] is S. aureus. To be noted: 50 ppb silver ion; input 10^7 CFU/mL; cited from earlier work.
For data set [8], the system named is MS2 bacteriophage. Briefly: Virus killing efficiency, plaque assay (Example 9). The class given is cell-based.
The subject of data set [9] is MS2 bacteriophage. Description: Virus killing efficiency at higher virus input load (Example 11). The class given is cell-based. The settings on record: input virus concentration higher than 10^3 PFU/mL; silver ion alone.
Procedure: Synthetic challenge water contains all the ions as prescribed by US NSF for challenge water studies. […] After one hour of contact time, 1 mL of the sample along with soft agar was plated on a sterile petridish using plaque assay method.
The test system of data set [10] is E. coli. Description: Bacterial killing efficiency with varying humic acid (Example 4). The class given is cell-based.
Procedure: In an aspect, 100 mL of synthetic water samples (typically containing bacterial concentration of 1×10^5 CFU/mL, unless otherwise mentioned) containing varying concentrations of humic acid were separately shaken with Ag^+(50 ppb) and Ag^+(50 ppb)/CO3^2−(20 ppm). Synthetic challenge water contains all the ions as prescribed by US NSF for challenge water studies. […] After one hour of standing, 1 mL from the samples was plated along with agar on a sterile petridish using pour plate method.
Data set [11] relates to E. coli. The settings on record: cited from earlier work.
Data set [12] concerns E-coli. Description: Bacterial killing efficiency of M^n+ and M^n+/CO3^2− (Example 5). The class given is cell-based. The settings on record: iron 200 ppb, zinc 1 ppm, carbonate 20 ppm; input 1×10^5 CFU/mL.

Turning to `[Cl][Ag]` [AgCl], the solubility in water in data set [1] is 1.9 µg/mL.

As to `[Ag+]` [Ag^+, silver ion], the “residual viable bacterial count” value in data set [2] (50 ppb Ag^+, input 1×10^5 CFU/mL, 1 h) is 10-50 CFU/mL. The “antibacterial activity, log reduction” value in data set [2] (silver ion below 40-50 ppb, synthetic challenge water) is 2-3 log reduction. For the same compound, the S. aureus concentration in data set [3] (silver ion up to 50 ppb, 1 h standing) is ≥ 10^3 CFU/mL. Further, the “time at which virus killing efficiency reaches a saturation value” in data set [4] (Ag^+ 50 ppb alone) is 1 h. Also, the values for the output bacterial count in data set [5] (sea salt 850 ppm) and in [5] (sea salt 1100 ppm) were 2000 CFU/mL and 10,000 CFU/mL, respectively. The results for the “bacterial count after storage” value in [6] (lower silver concentrations (<50 ppb)) and in data set [6] (silver ion 50 ppb) were > 10^3 CFU/mL and 0 CFU/mL, respectively. The “time to inactivate S. aureus” value in data set [7] is listed as “over 24 h”. Further, in data set [8] (higher silver ion concentration without SiO3^2− or CO3^2−), the residual virus entry was “residual virus concentration is present”. The virus killing ability entry in [9] is listed as “unable to obtain complete virus killing ability”. Besides, in data set [10] (50 ppb Ag^+), the “humic acid concentration up to which bacterial count is handled” value is listed as “up to 5 ppm”. Moreover, the output count result in [10] (humic acid 50 ppm, Ag^+ 50 ppb (composition with CO3^2− 20 ppm), input 1×10^5 CFU/mL) was “near to the input concentration”. The “minimum concentration of silver necessary for antibacterial activity” value in [11] was 40-50 ppb.

For the compound `O=C(O)O` [CO3^2−, carbonate], the “reduction in bacterial count by itself” value in data set [2] (CO3^2− without Ag^+) is on record as “doesn't provide a significant reduction in bacterial count”. Moreover, in data set [3] (20 ppm CO3^2− alone), the viable bacteria count is on record as > 10^5 CFU/mL. Besides, the virus killing efficiency in [4] (20 ppm CO3^2−, standing time 1 h) is reported as 20%; in data set [8] (20 ppm CO3^2−, no Ag^+, 1 h), 25%.

For the compound `[Fe+3]` [Fe^3+], the “reduction in bacterial count” value in data set [12] was “does not offer any reduction in bacterial count”.
